Test results: patent US8481576B2 (Abbott GmbH & Co. KG, priority 2004, dated 2013)
Where a name gives a salt, the structure may show the parent alone.

Biological target: HIV-1 RT (Human immunodeficiency virus type 1 group M subtype B, UniProt P03366)
Assay: not given
Settings: Bioorg. Med. Chem. Lett. 2000 (10), 265-268; cited from earlier work

Compound | biological activity
COc1ccccc1CCNC(=N)Nc1nccs1 [N-[2-(2-methoxyphenyl)ethyl]-N′-1,3-thiazole-2-ylguanidine] | did not show any demonstrable biological activity

Biological target: T1, h5-HT5A receptor (Homo sapiens, UniProt P47898)
T1 construct: expressed in transfected cells; host or cells: HEK293
T1 sequence (P47898 whole entry): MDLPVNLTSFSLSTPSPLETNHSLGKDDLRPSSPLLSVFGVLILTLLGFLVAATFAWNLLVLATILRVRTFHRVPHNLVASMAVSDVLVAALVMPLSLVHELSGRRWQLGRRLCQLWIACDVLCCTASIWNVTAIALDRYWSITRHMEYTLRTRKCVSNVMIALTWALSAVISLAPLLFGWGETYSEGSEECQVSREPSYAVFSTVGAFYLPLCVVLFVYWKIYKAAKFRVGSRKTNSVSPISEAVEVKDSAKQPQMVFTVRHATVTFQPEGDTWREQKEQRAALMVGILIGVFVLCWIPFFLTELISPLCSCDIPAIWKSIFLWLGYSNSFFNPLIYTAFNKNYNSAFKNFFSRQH
Assay: [3H]5-CT binding assay h5-HT5A
Settings: membranes from HEK293 cells expressing h5-HT5A, 2.5 nM [3H]5-CT; read-out: Binding affinity 5-HT5A (Ki)
Method in brief: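 Membranes from HEK293 cells stably expressing h5-HT5A incubated with 2.5 nM [3H]5-CT and compound in 100 mM Tris-HCl pH 7.7, 1 mM EDTA, 75 min at 30° C. Nonspecific binding with 10 μM methiothepine; filtration and scintillation counting give Ki or IC50.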

Compound | Ki [nM]
COc1cccc(OC)c1CNC(=N)Nc1nc(-c2ccc(C#N)cc2)cs1 [Example 60, N-[4-(4-cyanophenyl)-1,3-thiazole-2-yl]-N′-(2,6-dimethoxybenzyl)guanidine] | < 50
COc1cccc(-c2csc(NC(=N)NCc3c(OC)cccc3OC)n2)c1 [Example 61, N-(2,6-dimethoxybenzyl)-N′-[4-(3-methoxyphenyl)-1,3-thiazole-2-yl]guanidine] | < 50
COc1cccc(OC)c1CNC(=N)Nc1nc(-c2ccccc2)co1 [Example 199, N-(2,6-dimethoxybenzyl)-N′-(4-phenyl-1,3-oxazole-2-yl)guanidine] | < 50
CCc1csc(NC(=N)NCc2c(OC)cccc2OC)n1 [Example 3, N-(2,6-dimethoxybenzyl)-N′-(4-ethyl-1,3-thiazole-2-yl)-guanidine] | < 50
COc1cccc(OC)c1CNC(=N)Nc1nc(C(c2ccccc2)c2ccccc2)cs1 [Example 76, N-(2,6-dimethoxybenzyl)-N′-[4-(diphenylmethyl)-1,3-thiazole-2-yl]guanidine hydrobromide] | < 50
COc1cccc(OC)c1CNC(=N)Nc1nc(C2CCN(S(C)(=O)=O)CC2)cs1 [Example 163, N-(2,6-dimethoxybenzyl)-N′-{4-[1-(methylsulfonyl)piperidine-4-yl]-1,3-thiazole-2-yl}guanidine] | < 50
COc1cccc(OC)c1CNC(=N)Nc1nc(-c2ccc(OC(F)F)cc2)cs1 [Example 109, N-{4-[4-(difluoromethoxy)phenyl]-1,3-thiazole-2-yl}-N′-(2,6-dimethoxybenzyl)guanidine hydrobromide] | 50 to 500
COc1cccc(OC)c1CNC(=N)Nc1nc(-c2ccc(Cl)cn2)cs1 [Example 123, N-[4-(5-chloropyridine-2-yl)-1,3-thiazole-2-yl]-N′-(2,6-dimethoxybenzyl)guanidine acetate] | < 50
COc1ccc2ccccc2c1CNC(=N)Nc1nc(-c2ccccc2)cs1 [Example 146, N-[(2-methoxy-1-naphthyl)methyl]-N′-(4-phenyl-1,3-thiazole-2-yl)guanidine] | 50 to 500
COc1cccc(OC)c1CNC(=N)Nc1nc(-c2ncccc2Cl)cs1 [Example 164, N-[4-(3-chloropyridine-2-yl)-1,3-thiazole-2-yl]-N′-(2,6-dimethoxybenzyl)guanidine] | < 50
COc1ccc(C(F)(F)F)cc1CNC(=N)Nc1nc(-c2ccccc2)cs1 [Example 221, N-[2-methoxy-5-(trifluoromethyl)benzyl]-N′-(4-phenyl-1,3-thiazole-2-yl)guanidine] | > 500
COc1cccc(C)c1CNC(=N)Nc1nc(-c2ccc(Cl)cn2)cs1 [Example 137, N-[4-(5-chloropyridine-2-yl)-1,3-thiazole-2-yl]-N′-(2-methoxy-6-methylbenzyl)guanidine] | > 500
COc1cccc(OC)c1CNC(=N)Nc1nc(-c2ccc(N(C)C)cc2)cs1 [Example 110, N-(2,6-dimethoxybenzyl)-N′-{4-[4-(dimethylamino)phenyl]-1,3-thiazole-2-yl}guanidine hydrobromide] | < 50
COc1cccc(OC)c1CNC(=N)Nc1nc(-c2nc3ccccc3s2)cs1 [Example 88, N-[4-(1,3-benzothiazole-2-yl)-1,3-thiazole-2-yl]-N′-(2,6-dimethoxybenzyl)guanidine hydrobromide] | < 50
COc1cccc(OC)c1CNC(=N)Nc1nc(C2CCNCC2)cs1 [Example 162, N-(2,6-dimethoxybenzyl)-N′-(4-piperidine-4-yl-1,3-thiazole-2-yl)guanidine hydrochloride] | < 50
COc1cccc(OC)c1CNC(=N)Nc1ncc[nH]1 [Example 177, N-(2,6-dimethoxybenzyl)-N′-1H-imidazole-2-ylguanidine acetate] | < 50
COc1cccc(OC)c1CNC(=N)Nc1nc(-c2ccc(NS(C)(=O)=O)cc2)cs1 [Example 71, N-[4-(2-{[[(2,6-dimethoxybenzyl)amino](imino)methyl]amino}-1,3-thiazole-4-yl)phenyl]methanesulfonamide hydrobromide] | < 50
COc1ccc(-c2cc(NC(=N)NCc3c(OC)cccc3OC)n[nH]2)cc1 [Example 209, N-(2,6-dimethoxybenzyl)-N′-[5-(4-methoxyphenyl)-1H-pyrazole-3-yl]guanidine] | < 50
COC(=O)NCc1csc(NC(=N)NCc2c(OC)cccc2OC)n1 [Example 159, Methyl[(2-{[[(2,6-dimethoxybenzyl)amino](imino)methyl]amino}-1,3-thiazole-4-yl)methyl]carbamate] | < 50
COc1cccc(OC)c1CNC(=N)Nc1nc(-c2ccc3c(c2)CCO3)cs1 [Example 115, N-[4-(2,3-dihydro-1-benzofuran-5-yl)-1,3-thiazole-2-yl]-N′-(2,6-dimethoxybenzyl)guanidine] | < 50
COc1cccc(OC)c1CNC(=N)Nc1nc(-c2cccc(F)c2)cs1 [Example 73, N-(2,6-dimethoxybenzyl)-N′-[4-(3-fluorophenyl)-1,3-thiazole-2-yl]guanidine hydrobromide] | < 50
COc1cccc(OC)c1CNC(=N)Nc1cc[nH]n1 [Example 203, N-(2,6-dimethoxybenzyl)-N′-1H-pyrazole-3-ylguanidine] | < 50
COc1cccc(OC)c1CNC(=N)Nc1nc2ccc(C)cc2s1 [Example 169, N-(2,6-dimethoxybenzyl)-N′-(6-methyl-1,3-benzothiazole-2-yl)guanidine fumarate] | < 50
COc1cccc(F)c1CNC(=N)Nc1nc(C)cs1 [Example 86, N-(2-fluoro-6-methoxybenzyl)-N′-(4-methyl-1,3-thiazole-2-yl)guanidine] | < 50
COc1cccc(OC)c1CNC(=N)Nc1cc(-c2ccccc2)[nH]n1 [Example 202, N-(2,6-dimethoxybenzyl)-N′-(5-phenyl-1H-pyrazole-3-yl)guanidine] | < 50

Now from value to compound:

Ki [nM] | Compound
50 to 500 | COc1ccccc1CNC(=N)Nc1nc(C(C)(C)C)cs1 [Example 37, N-(4-tert-butyl-1,3-thiazole-2-yl)-N′-(2-methoxybenzyl)guanidine (2E)-But-2-endioate]
50 to 500 | COc1ccccc1CNC(=N)Nc1nc(-c2ccccc2)co1 [Example 197, N-(2-methoxybenzyl)-N′-(4-phenyl-1,3-oxazole-2-yl)guanidine]
< 50 | CCOc1ccccc1CNC(=N)Nc1nccs1 [Example 8, N-(2-ethoxybenzyl)-N′-1,3-thiazole-2-ylguanidine hydrochloride]
< 50 | COc1cccc(OC)c1CNC(=N)Nc1nc(-c2ncccn2)cs1 [Example 122, N-(2,6-dimethoxybenzyl)-N′-(4-pyrimidine-2-yl-1,3-thiazole-2-yl)guanidine hydrobromide]
< 50 | COc1cccc(OC)c1CNC(=N)Nc1nc(-c2ccccn2)cs1 [Example 42, N-(2,6-dimethoxybenzyl)-N′-(4-pyridine-2-yl-1,3-thiazole-2-yl)guanidine (2E)-But-2-endioate]
50 to 500 | COc1ccc(F)cc1CNC(=N)Nc1nc(C)cs1 [Example 130, N-(5-fluoro-2-methoxybenzyl)-N′-(4-methyl-1,3-thiazole-2-yl)guanidine fumarate]
> 500 | Cc1ccccc1CNC(=N)Nc1nccs1 [Example 12, N-(2-methylbenzyl)-N′-1,3-thiazole-2-ylguandine]
50 to 500 | COc1ccccc1CNC(=N)Nc1cc[nH]n1 [Example 205, N-(2-methoxybenzyl)-N′-1H-pyrazole-3-ylguanidine]
> 500 | N=C(NCc1ccccc1Cl)Nc1nccs1 [Example 7, N-(2-chlorobenzyl)-N′-1,3-thiazole-2-ylguanidine hydrochloride]
< 50 | COc1cccc(C)c1CNC(=N)Nc1nc(-c2ncccn2)cs1 [Example 139, N-(2-methoxy-6-methylbenzyl)-N′-(4-pyrimidine-2-yl-1,3-thiazole-2-yl)guanidine]
< 50 | COc1ccccc1CNC(=N)Nc1nc(-c2ccc(OC(F)(F)F)cc2)cs1 [Example 100, N-(2-methoxybenzyl)-N′-{4-[4-(trifluoromethoxy)phenyl]-1,3-thiazole-2-yl}guanidine]
50 to 500 | COc1cccc(CNC(=N)Nc2nccs2)c1 [Example 14, N-(3-methoxybenzyl)-N′-1,3-thiazole-2-ylguanidine hydrochloride]
> 500 | COc1ccc(CNC(=N)Nc2nccs2)cc1 [Example 15, N-(4-methoxybenzyl)-N′-1,3-thiazole-2-ylguanidine]
> 500 | N=C(NCc1ccccc1C(F)(F)F)Nc1nccs1 [Example 18, N-1,3-thiazole-2-yl-N′[2-(trifluoromethyl)benzyl]guanidine]
